Three compounds from article PMC10895678 (Journal of Medicinal Chemistry, 2024) can be followed below.

In brackets after ≈: the same amount, converted by molar mass.

One experiment has as its system MDR-M. tb 08/00483E. In words: microbe, parasite or virus in culture. The following applies: for MIC99: Mycobacterium tuberculosis, read-out: MDR-M. tb 08/00483E MIC99. Type of experiment: cell-based, Mycobacterium tuberculosis.
In experiment [1] the test system is M. smegmatis and M. bovis BCG.

As for `FC(F)(F)Oc1ccc(C2CC(CN3CCCC3)N2Cc2ccccc2OC(F)(F)F)cc1` (centres unmarked) [BGAz-002], in the experiment on MDR-M. tb 08/00483E, the MIC99 was determined as 33.5 µM (≈ 15.9 µg/mL). Further, the resistant colonies formed result in experiment [1] is on record as “three resistant colonies”.
Turning to `Brc1cc(Br)cc(C2CC(CN3CCCC3)N2Cc2ccccc2Br)c1` (centres unmarked) [BGAz-004], the MIC99 in the experiment on MDR-M. tb 08/00483E was 15.6 µM (≈ 8.47 µg/mL).
Take `CNCC1CC(c2ccc(OC(F)(F)F)cc2)N1Cc1ccccc1OC(F)(F)F` (centres unmarked) [BGAz-005]: in the experiment with MDR-M. tb 08/00483E, the “fold lower MIC in MDR isolate 08/00483E in comparison to the drug-sensitive isolate” value is given as 8 fold and the MIC99 turned out to be 2.8 µM (≈ 1.22 µg/mL).
